We go through two compounds from paper PMC12686243, “Synthesis and preclinical evaluation of FAP-targeting radiotracers for PET and optical imaging” (EJNMMI Radiopharmacy and Chemistry, 2025).

Read-outs that look alike come from different tables or passages of the source.

The target in test [1] is T1, hFAP (hFAP-HT1080 cells) (Homo sapiens, UniProt Q12884).
T1 construct: expressed in transfected cells; host or cells: HT1080 (human fibrosarcoma), lentiviral transduction
T1 sequence (Q12884 1-760): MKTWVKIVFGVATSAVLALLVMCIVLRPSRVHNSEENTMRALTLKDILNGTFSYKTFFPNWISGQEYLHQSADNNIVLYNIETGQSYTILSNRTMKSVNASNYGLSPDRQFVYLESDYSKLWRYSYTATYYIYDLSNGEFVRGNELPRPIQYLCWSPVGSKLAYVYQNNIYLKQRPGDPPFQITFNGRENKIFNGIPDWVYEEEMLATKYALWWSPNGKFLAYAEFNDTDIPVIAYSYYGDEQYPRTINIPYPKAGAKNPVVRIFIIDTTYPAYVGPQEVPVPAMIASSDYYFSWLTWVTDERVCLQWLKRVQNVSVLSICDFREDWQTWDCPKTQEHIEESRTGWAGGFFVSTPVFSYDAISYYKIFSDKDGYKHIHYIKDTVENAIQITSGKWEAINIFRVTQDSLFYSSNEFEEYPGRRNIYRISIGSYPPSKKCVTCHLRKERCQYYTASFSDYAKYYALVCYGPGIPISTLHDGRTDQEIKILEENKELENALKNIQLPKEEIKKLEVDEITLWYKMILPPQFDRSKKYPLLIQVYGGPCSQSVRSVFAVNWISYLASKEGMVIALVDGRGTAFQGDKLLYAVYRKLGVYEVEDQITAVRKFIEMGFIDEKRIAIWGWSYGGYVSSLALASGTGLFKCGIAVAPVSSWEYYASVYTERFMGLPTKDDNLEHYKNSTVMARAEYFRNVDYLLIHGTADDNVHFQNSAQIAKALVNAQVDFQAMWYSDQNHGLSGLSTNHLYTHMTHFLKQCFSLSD
Kind of test: saturation binding to hFAP-HT1080 cells. As to conditions: 60 min, 37 °C. How it is done: Saturation binding (n ≥ 3, in triplicates) was performed to estimate thermodynamic dissociation constants (KD) and number of binding sites (Bmax). hFAP-HT1080 were cultured under the conditions described above. On the day of the experiment, 48-well plates were kept at 37 °C in an incubation chamber. The medium was replaced with 200 µL CO2-independent medium, (Gibco #18045088, ThermoFisher Germany) for total binding (TB) conditions. For the assessment of nonspecific binding (NSB), the same medium was used, containing 14 µM of FAPI-04 (in DMSO, resulting in 0.007% v/v). After 15 min preincubation for TB/NSB, 200 µL of each eight serial 1:1 dilutions (75 to 0.12 nM) of the respective radioligand were added (in triplicate), resulting in a final concentration per well of 35–0.06 nM. Cells were incubated with the respective radioligand for 60 min at 37 °C. The incubation medium was discarded and the wells washed with ice-cold PBS (2x ~ 30 s). The cells were then lysed with 500 µL 0.1 M NaOH + 1% SDS. For radioactivity detection, 400 µL of lysate was measured in a gamma counter (Perkin Elmer Wizard 1480). Additionally, binding to polystyrene in absence of cells was determined in 400 µL of lysate, along with the activity of all dilutions (50 µL). However, intrinsic plastic adherence of both compounds was very low. All counts were decay-corrected to a reference time (end of radiolabeling). Protein content was determined in an additional plate, subjected to the same conditions (pre-incubation, incubation and washing) by BCA assay and a mean value (µg/mL) used for this particular dataset (all replicate plates). From CPM measurements, final values (pmol/mg protein) were calculated using mean protein content and molar activity. Similarly, lysates from a random plate were subjected to fluorescent detection. For that purpose, 100 µL were pipetted bubble free into a transparent bottom 96 well imaging plate (Greiner Bio-One, µclear #655087). The plate was then imaged on a Typhoon 9500 bio imager (GE, USA) using either the Cy5 or IR-long filter-set (350–500 PMT voltage). From these images, fluorescence density (counts/mm^2) was determined (Bio-Rad, Quantity One 4.6.8). All processed data was then subjected to non-linear iterative curve fitting (GraphPad Prism 10) to yield Bmax (in pmol/mg protein or CNT/mm^2) and KD (in nM).

Test [2] has as its target T2, hFAP (vital hFAP-HT1080 cells) (Homo sapiens, UniProt Q12884).
T2 construct: expressed in transfected cells; host or cells: HT1080 (human fibrosarcoma), lentiviral transduction
T2 sequence (Q12884 1-760): T1 sequence (Q12884 1-760)
Kind of test: real-time binding (LigandTracer) to vital hFAP-HT1080 cells. As to conditions: for Bmax (%): fitted per individual curve, range; for Bmax (%) / ka / kd: room temperature; for ka / kd: global fit, 1:1 model. On the procedure: To determine binding kinetics (association rate constant ka, dissociation rate constant kd, and thermodynamic dissociation constant KD), real-time assay systems (LigandTracer Yellow/White for radioactivity and Green with Red/NIR + and NIR + + /IR detectors for fluorescence; Ridgeview Instruments AB, Sweden) were utilized. In a 100 mm petri dish, cells or tissue sections in medium (3–4 mL total volume), are located on one side, while the radioactive or fluorescent signal is detected on the opposite, elevated side. Rotation on an inclined base in set intervals (30 s) allows continuous measurement of signal in the target (cells/tissue) against background area (no cells/tissue). Experiments were performed at room temperature, using CO2-independent medium, usually with 0.5–1% w/v bovine serum albumin, (#1ETA, Carl Roth, Germany). Association was determined through incubation with two distinct concentrations (between 1–5 and 4.5–10 nM, 60 min each, additive) for each compound. For that purpose, the same ligand preparation was typically employed for radioactive and fluorescent detection. This was followed by replacement with fresh medium and observation of dissociation for at least 2 h. Additionally, the dissociation rate constant was further investigated beyond 6 h, either using fluorescent detection or via gallium-67 (t1/2: 78.3 h). This approach provides reliable kinetic measurements in a 1:1 interaction setting, as previously shown (Onell and Andersson [2005]).
Binding data was evaluated using TraceDrawer (1.9.2, Ridgeview Instruments AB, Sweden). Traces were imported, potential spikes (> 100% sudden signal increases over previous datapoints) removed and each trace was normalized to its own baseline (= 0%) and highest value (= 100%, typically at the end of the second association phase). This allows comparing data across experiments and ultimately global fitting, without differences, e.g. of molar activity, affecting it. Typically, at least 3 individual traces per ligand, substrate and modality were recorded. Data was fitted in TraceDrawer using a 1:1 interaction model, with/without accounting for bulk effect. A 1:1 interaction is the simplest model, as it describes the binding of a ligand at a constant concentration to the target, with each one molecule of ligand binding to one molecule of target.

Where [3] appears, read: n = 1, read-out: KD, fluorescent label detection, best fit.
The mark [4] stands for this setting: nonspecific binding with 14 µM FAPI-04, n = 3.
The mark [5] stands for this setting: nonspecific binding with 14 µM FAPI-04, n = 3, read-out: KD, radioactive label detection, best fit.
Where [6] appears, read: from global fit of ka and kd, read-out: KD.
The mark [7] stands for this setting: real-time binding, live cells, read-out: binding affinity (KD).

In the case of `CN(CCCN1CCN(C(=O)[C@H](CCCCNC(=O)CC[C@H](C(=O)[O-])N2CCN(CC(=O)[O-])CCN(CC(=O)[O-])CC2)NC(=O)CCOCCOCCOCCOCCNC(=O)CCCCC[N+]2=C(C=CC=CC=C3N(CCCS(=O)(=O)O)c4ccc(S(=O)(=O)O)cc4C3(C)C)C(C)(CCCS(=O)(=O)O)c3cc(S(=O)(=O)[O-])ccc32)CC1)c1ccc2nccc(C(=O)NCC(=O)N3CC(F)(F)C[C@H]3C#N)c2c1.[68Ga+3]` (stereo partly drawn) [[^68Ga]Ga-NODAGA-FAP647], in test [1] (n = 1), the “Bmax, fluorescent label detection, best fit” value is 4.8 * 10^5 AU. For the same compound, the equilibrium dissociation constant (Kd) – broadly, a measure of binding affinity in units of concentration – in test [1] (setting [3]) is 0.76 nM; in test [1] (setting [5]) it was 0.99 nM; in test [2] (setting [6]), 0.0138 nM; in test [2] (setting [7]), 0.014 nM. Besides, the “Bmax, radioactive label detection, best fit” value in test [1] (setting [4]) came out at 1.63 pmol/mg/protein. In test [2], the “Bmax (%)” value is 84–98%. Besides, the ka in test [2] came out at 484000 M⁻¹ s⁻¹. This compound also returned a kd in test [2] of 6.67e-06 s⁻¹.
Take `CN(CCCN1CCN(C(=O)[C@H](CCCCNC(=O)CC[C@H](C(=O)[O-])N2CCN(CC(=O)[O-])CCN(CC(=O)[O-])CC2)NC(=O)CCOCCOCCOCCOCCNC(=O)CCCCCN2C(=CC=C3CCCC(C=CC4=[N+](CCCCS(=O)(=O)[O-])c5ccc(S(=O)(=O)O)cc5C4(C)C)=C3Oc3ccc(S(=O)(=O)O)cc3)C(C)(C)c3cc(S(=O)(=O)O)ccc32)CC1)c1ccc2nccc(C(=O)NCC(=O)N3CC(F)(F)C[C@H]3C#N)c2c1.[68Ga+3]` [[^68Ga]Ga-NODAGA-FAP800]: in test [1] (n = 1), the “Bmax, fluorescent label detection, best fit” value was 5.7 * 10^5 AU. Also, the Kd in test [1] (setting [3]) was found to be 1.24 nM; in test [1] (setting [5]) it was 1.65 nM; in test [2] (setting [6]), 0.0576 nM; in test [2] (setting [7]), 0.058 nM. In addition, the “Bmax, radioactive label detection, best fit” value in test [1] (setting [4]) turned out to be 1.41 pmol/mg/protein. In addition, the “Bmax (%)” value in test [2] is 91–96%. In addition, in test [2], the ka came to 411000 M⁻¹ s⁻¹. The kd in test [2] is 2.37e-05 s⁻¹.
